Results reported in US20250295615A1 (BOARD OF REGENTS, THE UNIVERSITY OF TEXAS SYSTEM, priority 2021, published 2025).

What was measured:
prostate tumor = conditions: 7-year period, men taking the drug daily; cited from earlier work
[1] = human, in vivo
Excerpt: Population and Recruitment: We recruited healthy men enrolled in the SABOR study, which is a community-based prostate cancer screening cohort. The San Antonio Biomarkers of Risk (SABOR) study cohort was funded by the National Cancer Institute Early Detection Research Network-sponsored Clinical and Epidemiologic Validation Center since its nascent enrollment in 2000 (IRB #HSC20000030H). A separate IRB was approved for the phase 1 trial (IRB #HSC20190940H). Subjects had no prior diagnosis of prostate cancer at the time of enrollment and varied prostate cancer risk profiles. We used the local UT Health San Antonio Data Safety and Monitoring Board (DSMB).
(§1) Study Outcomes: Safety was compared to evaluate the number, frequency, duration, and relation of toxicity events to CURC and UA, as defined by the Common Terminology Criteria for Adverse Events (CTCAE) v 4.03. […] We also investigated the impact on the microbiome in a paired analysis for change and overall theme of imputed bacterial function.
Common Terminology Criteria for Adverse Events (CTCAE) v 4.03. […] A creatinine rise would indicate kidney dysfunction.

[2] = Phase 1 clinical trial, safety laboratory values (week 2 minus baseline); format: in vivo, human
Excerpt: Laboratory Safety values. We perform laboratory analysis at baseline and at the end of the two-week study. We then subtracted the values (week 2-baseline) to obtain the differences for each participant.

[3] = human, in vivo; remark: listed apart in the source
Description: as §1
Measurement of Compounds: The compounds and their metabolites were measured using an UHPLC-MS/MS system performed on a Hybrid quadrupole-Orbitrap mass spectrometer (Q Exactive, Thermo Scientific, Waltham, MA, USA) hyphenated with a Thermo Scientific Vanquish Flex ultrahigh-pressure liquid chromatography (UHPLC) system via electrospray ionization source. For the parallel reaction monitoring (PRM) scan, the resolution, auto gain control (AGC) target, and maximum injection time (IT) were set at 17500, 2e5, and 100 ms. The All-Ion Fragmentation (AIF) scan consisted of a scan range of m/z 100-750 with NCE 10. The resolution, AGC target, and maximum IT for the AIF scan were set at 70000, 3e6, and 200 ms, respectively.
Statistical Analysis: Demographics between groups was compared using the Fischer Exact test for categorical variables and the Student's t-test for continuous variables. Safety laboratory values were analyzed using a paired t-test for differences, with significance set at p<0.05. ANOVA was used to compare plasma levels of UA, CURC, and CURC metabolites. Least significant difference (LSD) was used as the post hoc analysis test to compare values between groups.

prostate cancer = conditions: mouse, in vivo; cited from earlier work
[4] = week 2 minus baseline, median (IQR), n = 6

SMILES	Difference in ALT [2, 4]	Difference in AST [2, 4]	Difference in Albumin [2, 4]	Difference in Alkaline Phosphatase [2, 4]	Difference in Bicarbonate [2, 4]	Difference in Bilirubin [2, 4]	Difference in Calcium [2, 4]	Difference in Chloride [2, 4]	Difference in Creatinine [2, 4]	Difference in Glomerular Filtration Rate (GFR) [2, 4]	Difference in Hematocrit [2, 4]	Difference in Hemoglobin [2, 4]	Difference in Platelets [2, 4]	Difference in Sodium [2, 4]	Plasma levels in words (FIG. 2) [3]	also measured
CC(C)(C)NC(=O)[C@H]1CC[C@H]2[C@@H]3CC[C@H]4NC(=O)C=C[C@]4(C)[C@H]3CC[C@]12C [Finasteride]	–	–	–	–	–	–	–	–	–	–	–	–	–	–	–	Reduction in prostate tumor prevalence (prostate tumor): 24.8%
COc1cc(/C=C/C(=O)CC(=O)/C=C/c2ccc(O)c(OC)c2)ccc1O [Curcumin, curcumin]	−1.0 (−3.25 to 0.0)	2.0 (−2.0 to 3.3)	0.05 (−0.05 to 0.2)	−2.0 (−5.5 to 9.3)	−1.5 (−4.3 to 0.0)	−0.1 (−0.3 to 0.0)	0.2 (−0.15 to 0.32)	−0.5 (−1.3 to 0.8)	0.07 (−0 07 to 0.16)	−5.5 (−12.0 to 4.5)	0.25 (−1.45 to 2.35)	0.20 (−0.30 to 0.55)	7.0 (−5 to 31.5)	0.0 (−1.5 to 1.0)	Minimal amounts of the parent curcumin compound and large amounts of curcumin glucuronide	Relationship To Study Treatment [1]: Unlikely; GFR after 2 weeks, individual participant ([2]; curcumin arm participant baseline 45, CurcUA participant baseline 76): 46; Difference in White blood cell (WBC) [2, 4]: 0.15 (−0.43 to 0.68)
C[C@H]1[C@H](C)CC[C@]2(C(=O)O)CC[C@]3(C)C(=CC[C@@H]4[C@@]5(C)CC[C@H](O)C(C)(C)[C@@H]5CC[C@]43C)[C@H]12 [Ursolic Acid, ursolic acid]	1.5 (1.0 to 12.8)	2.0 (−1.3 to 3.3)	0.0 (−0.1 to 0.2)	2.5 (−2.5 to 5.0)	1.0 (−1.5 to 3.0)	0.0 (−0.08 to 0.15)	0.03 (−0.05 to 0.48)	−1.0 (−2.75 to 1.75)	−0.08 (−0.33 to 0.12)	−3.5 (−10.3 to 3.5)	1.55 (−0.85 to 2.85)	0.20 (−0.33 to 0.58)	9.5 (2.5 to 27)	0.5 (−1.5 to 2.25)	modest absorption of ursolic acid	Median plasma values of CURC and its metabolites ([3]; male, 14 day): 0.0 ng/mL; Effect on prostate cancer in TRAMP mice (prostate cancer): inhibited initiation, progression, and metastasis of prostate cancer
